{"source": "patent US9062093B2", "about": "“Peptide compositions and methods for treating patients” (THE REGENTS OF THE UNIVERSITY OF MICHIGAN, priority 2011, dated 2015)", "tested_on": "C57BL/6J mice", "test": "Blood glucose after oral load of glucose together with amino acid or peptide", "type": "in vivo", "details": "for Blood glucose levels in mice loaded with glucose: non-diabetic mice, glucose 2 mg/g bw and peptide 1 mg/g bw orally", "protocol": "An experiment was performed in adult male C57BL/6J mice purchased from Jackson Lab (Bar Harbor, Me.). Fasted mice were given glucose (2 mg/g body weight, diamond line in FIG. 1, n=10) or glycine (0.35 mg/g bw, square line in FIG. 1, n=10) and glucose by gavaging. Blood glucose was measured at 0, 30, 60, 90, and 120 min after giving glucose.\nAn experiment was performed in adult male C57BL/6J mice purchased from Jackson Lab. In the control group (diamond line in FIG. 13, n=10), glucose was orally administered at dose of 2 mg/g bw. In the Diapin and LLG group (square line or triangle line, n=9), glucose and Diapin or glucose and LLG were orally administered at dose of 2 mg/g bw and 1 mg/g bw, respectively. Blood glucose was measured at 0, 30, 60, 90 and 120 min after gavaging glucose and Diapin.\nAn experiment was performed in adult male C57BL/6J mice purchased from Jackson Lab. In the control group (diamond line in FIG. 14, n=10), glucose was orally administered at dose of 2 mg/g bw. […] Blood glucose was measured at 0, 30, 60, 90 and 120 min after gavaging glucose and GLG or GLL.\nAn experiment was performed in adult male C57BL/6J mice purchased from Jackson Lab. […] Blood glucose was measured at 0, 0.5, 1, 1.5 and 2 hours after gavaging glucose, Diapin and amidated Diapin.\nAn experiment was performed in adult male C57BL/6J mice purchased from Jackson Lab. […] Blood glucose was measured at 0, 0.5, 1, 1.5 and 2 hours after gavaging glucose, Diapin, and acetylated Diapin.\nAn experiment was performed in adult male C57BL/6J mice purchased from Jackson Lab. […] Blood glucose was measured at 0, 0.5, 1, 1.5 and 2 hours after gavaging glucose, Diapin and amidated/acetylated Diapin.\n(§1) An experiment was performed in adult male C57BL/6J mice purchased from Jackson Lab. […] Blood glucose was measured at 30, 60, 90 and 120 min after giving glucose. […]\nas §1"}
{"compound": "NCC(=O)O", "note": "[glycine, reference compound]", "values": [{"measurement": "Blood glucose levels compared to the control group", "setting": "glycine 0.35 mg/g bw and glucose 2 mg/g bw by gavage, fasted mice, any time point (0, 30, 60, 90, 120 min)", "value": "not significantly changed"}]}
{"compound": "Glycine-Leucine-Leucine [GLL]", "values": [{"measurement": "Blood glucose levels in mice loaded with glucose", "value": "significantly reduce blood glucose levels"}]}
{"compound": "Leucine-Leucine-Glycine [LLG]", "values": [{"measurement": "Blood glucose levels in mice loaded with glucose", "value": "significantly reduce blood glucose levels"}]}
